Data from the supplement of paper PMC10307832.

Columns and labels:
Experiment in all cases: relative viability (nuclei count vs DMSO), 5 days (fraction); higher = more cells survive
[1] = compound: CN(C/C=C/C1=CC=C(C=C1)Cl)CC2=CC=CC=C2N(CCO)S(=O)(=O)C3=CC=C(C=C3)OC [KN-93]
Method in brief: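 Lung cancer cell lines in 1536-well plates were kept overnight at 37 °C, then pinned with five library-drug doses (not always all listed) spaced by √10 on vehicle-anchored plates. After 5 days without medium change, cells were fixed, permeabilised and Hoechst-stained in one step, imaged at 4×, and nuclei were counted with MetaXpress. Viability is treated-well nuclei divided by vehicle-well nuclei, taken as the median over plates. Plates passed only with control CV below 25% and at least one doubling.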

[2] = compound: CN(C/C=C/C1=CC=C(C=C1)Cl)CC2=CC=CC=C2N(CCO)S(=O)(=O)C3=CC=C(C=C3)OC [KN-93] + O=C(CCCCCCC(=O)Nc1ccccc1)NO [Vorinostat] (partner 1 µM)
Method in brief: (§1)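 Five library-drug doses in √10 steps were combined with a fixed anchor-drug dose, or a single drug was given alone, by pin tool to lung cancer cell lines in 1536-well plates the day after seeding. Nuclei were stained and counted after 5 days. Relative viability is the nuclei count in treated wells over that in vehicle wells, taken as the median of duplicate plates.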

[3] = compound: CN(C/C=C/C1=CC=C(C=C1)Cl)CC2=CC=CC=C2N(CCO)S(=O)(=O)C3=CC=C(C=C3)OC [KN-93] + Nc1nc2[nH]cc(CCc3ccc(C(=O)N[C@@H](CCC(=O)O)C(=O)O)cc3)c2c(=O)[nH]1 [Pemetrexed] (partner 0.2 µM)
Method in brief: as §1

[4] = compound: CN(C/C=C/C1=CC=C(C=C1)Cl)CC2=CC=CC=C2N(CCO)S(=O)(=O)C3=CC=C(C=C3)OC [KN-93] + O=C(c1cc(Cc2n[nH]c(=O)c3ccccc23)ccc1F)N1CCN(C(=O)C2CC2)CC1 [Olaparib] (partner 8 µM)
Method in brief: as §1

[5] = compound: CN(C/C=C/C1=CC=C(C=C1)Cl)CC2=CC=CC=C2N(CCO)S(=O)(=O)C3=CC=C(C=C3)OC [KN-93] + Cc1cc(Nc2cc(N3CCN(C)CC3)nc(Sc3ccc(NC(=O)C4CC4)cc3)n2)n[nH]1 [Tozasertib] (partner 0.1 µM)
Method in brief: as §1

[6] = compound: CN(C/C=C/C1=CC=C(C=C1)Cl)CC2=CC=CC=C2N(CCO)S(=O)(=O)C3=CC=C(C=C3)OC [KN-93] + Nc1ncn([C@H]2C[C@H](O)[C@@H](CO)O2)c(=O)n1 [Decitabine] (partner 2 µM)
Method in brief: as §1

[7] = compound: CN(C/C=C/C1=CC=C(C=C1)Cl)CC2=CC=CC=C2N(CCO)S(=O)(=O)C3=CC=C(C=C3)OC [KN-93] + CC(=O)Nc1cccc(-n2c(=O)n(C3CC3)c(=O)c3c(Nc4ccc(I)cc4F)n(C)c(=O)c(C)c32)c1 [Trametinib] (partner 0.02 µM)
Method in brief: as §1

[8] = compound: CN(C/C=C/C1=CC=C(C=C1)Cl)CC2=CC=CC=C2N(CCO)S(=O)(=O)C3=CC=C(C=C3)OC [KN-93] + CC(=O)c1c(C)c2cnc(Nc3ccc(N4CCNCC4)cn3)nc2n(C2CCCC2)c1=O [Palbociclib] (partner 0.5 µM)
Method in brief: as §1

[9] = compound: CN(C/C=C/C1=CC=C(C=C1)Cl)CC2=CC=CC=C2N(CCO)S(=O)(=O)C3=CC=C(C=C3)OC [KN-93] + NC(=O)Nc1cc(-c2cccc(F)c2)sc1C(=O)N[C@H]1CCCNC1 [AZD7762] (partner 0.2 µM)
Method in brief: as §1

[10] = compound: CN(C/C=C/C1=CC=C(C=C1)Cl)CC2=CC=CC=C2N(CCO)S(=O)(=O)C3=CC=C(C=C3)OC [KN-93] + COc1cccc2cc(-c3nc([C@H]4CC[C@H](C(=O)O)CC4)n4ncnc(N)c34)[nH]c12 [OSI-027] (partner 0.5 µM)
Method in brief: as §1

[11] = compound: CN(C/C=C/C1=CC=C(C=C1)Cl)CC2=CC=CC=C2N(CCO)S(=O)(=O)C3=CC=C(C=C3)OC [KN-93] + CC(C)C[C@H](NC(=O)[C@H](Cc1ccccc1)NC(=O)c1cnccn1)B(O)O [Bortezomib] (partner 0.002 µM)
Method in brief: as §1

[12] = compound: CN(C/C=C/C1=CC=C(C=C1)Cl)CC2=CC=CC=C2N(CCO)S(=O)(=O)C3=CC=C(C=C3)OC [KN-93] + CS(=O)(=O)N1CCN(Cc2cc3nc(-c4cccc5[nH]ncc45)nc(N4CCOCC4)c3s2)CC1 [Pictilisib] (partner 1 µM)
Method in brief: as §1

[13] = compound: CN(C/C=C/C1=CC=C(C=C1)Cl)CC2=CC=CC=C2N(CCO)S(=O)(=O)C3=CC=C(C=C3)OC [KN-93] + CC1(C)CCC(c2ccc(Cl)cc2)=C(CN2CCN(c3ccc(C(=O)NS(=O)(=O)c4ccc(N[C@H](CCN5CCOCC5)CSc5ccccc5)c(S(=O)(=O)C(F)(F)F)c4)cc3)CC2)C1 [Navitoclax] (partner 0.5 µM)
Method in brief: as §1

[14] = compound: CN(C/C=C/C1=CC=C(C=C1)Cl)CC2=CC=CC=C2N(CCO)S(=O)(=O)C3=CC=C(C=C3)OC [KN-93] + COc1cc2c(Oc3ccc(NC(=O)C4(C(=O)Nc5ccc(F)cc5)CC4)cc3F)ccnc2cc1OCCCN1CCOCC1 [Foretinib] (partner 0.25 µM)
Method in brief: as §1

[15] = compound: CN(C/C=C/C1=CC=C(C=C1)Cl)CC2=CC=CC=C2N(CCO)S(=O)(=O)C3=CC=C(C=C3)OC [KN-93] + CS(=O)(=O)CCNCc1ccc(-c2ccc3ncnc(Nc4ccc(OCc5cccc(F)c5)c(Cl)c4)c3c2)o1 [Lapatinib] (partner 2 µM)
Method in brief: as §1

[16] = compound: CN(C/C=C/C1=CC=C(C=C1)Cl)CC2=CC=CC=C2N(CCO)S(=O)(=O)C3=CC=C(C=C3)OC [KN-93] + C[C@@H](Oc1cc(-c2cnn(C3CCNCC3)c2)cnc1N)c1c(Cl)ccc(F)c1Cl [Crizotinib] (partner 1 µM)
Method in brief: as §1

[17] = compound: CN(C/C=C/C1=CC=C(C=C1)Cl)CC2=CC=CC=C2N(CCO)S(=O)(=O)C3=CC=C(C=C3)OC [KN-93] + C[C@]1(O)C[C@@H](c2nc(-c3ccc4ccc(-c5ccccc5)nc4c3)c3c(N)nccn32)C1 [Linsitinib] (partner 1 µM)
Method in brief: as §1

[18] = compound: CN(C/C=C/C1=CC=C(C=C1)Cl)CC2=CC=CC=C2N(CCO)S(=O)(=O)C3=CC=C(C=C3)OC [KN-93] + Cc1nc(NC(=O)N2CCC[C@H]2C(N)=O)sc1-c1ccnc(C(C)(C)C(F)(F)F)c1 [Alpelisib] (partner 2 µM)
Method in brief: as §1

With NCI-H1648 as the cell line, how does the relative viability ([1]; 0.08 µM) read?
Its relative viability is 0.704.

And the relative viability ([1]; 0.253 µM)?
The relative viability was 0.792.

What about the relative viability ([1]; 2.53 µM) of the same cell line?
Its relative viability is 0.968.

And the relative viability ([1]; 8 µM)?
Its relative viability is 0.526.

What about the relative viability ([2]; first compound 0.08 µM) of the same cell line?
Its relative viability is 0.485.

And the relative viability ([2]; first compound 0.253 µM)?
Its relative viability is 0.423.

What about the relative viability ([2]; first compound 2.53 µM) of the same cell line?
Its relative viability is 0.322.

What about the relative viability ([2]; first compound 8 µM) of the same cell line?
The relative viability was 0.807.

And the relative viability ([3]; first compound 0.08 µM)?
The relative viability was 0.717.

And the relative viability ([3]; first compound 0.253 µM)?
Its relative viability is 0.874.

And the relative viability ([3]; first compound 2.53 µM)?
The relative viability was 0.788.

And the relative viability ([3]; first compound 8 µM)?
The relative viability was 0.716.

And the relative viability ([4]; first compound 0.08 µM)?
Its relative viability is 0.56.

And the relative viability ([4]; first compound 0.253 µM)?
Its relative viability is 0.724.

And the relative viability ([4]; first compound 2.53 µM)?
The relative viability was 0.568.

And the relative viability ([4]; first compound 8 µM)?
The relative viability was 0.711.

And the relative viability ([5]; first compound 0.08 µM)?
The relative viability was 0.426.

What about the relative viability ([5]; first compound 0.253 µM) of the same cell line?
Its relative viability is 0.378.

What about the relative viability ([5]; first compound 2.53 µM) of the same cell line?
The relative viability was 0.389.

And the relative viability ([5]; first compound 8 µM)?
The relative viability was 0.331.

And the relative viability ([6]; first compound 0.08 µM)?
Its relative viability is 0.459.

What about the relative viability ([6]; first compound 0.253 µM) of the same cell line?
The relative viability was 0.45.

What about the relative viability ([6]; first compound 2.53 µM) of the same cell line?
The relative viability was 0.557.

What about the relative viability ([6]; first compound 8 µM) of the same cell line?
The relative viability was 0.34.

And the relative viability ([7]; first compound 0.08 µM)?
Its relative viability is 0.403.

And the relative viability ([7]; first compound 0.253 µM)?
Its relative viability is 0.445.

And the relative viability ([7]; first compound 2.53 µM)?
Its relative viability is 0.381.

What about the relative viability ([7]; first compound 8 µM) of the same cell line?
The relative viability was 0.407.

And the relative viability ([8]; first compound 0.08 µM)?
Its relative viability is 0.251.

And the relative viability ([8]; first compound 0.253 µM)?
The relative viability was 0.259.

What about the relative viability ([8]; first compound 2.53 µM) of the same cell line?
Its relative viability is 0.295.

What about the relative viability ([8]; first compound 8 µM) of the same cell line?
Its relative viability is 0.291.

What about the relative viability ([9]; first compound 0.08 µM) of the same cell line?
The relative viability was 0.647.

And the relative viability ([9]; first compound 0.253 µM)?
Its relative viability is 0.727.

And the relative viability ([9]; first compound 2.53 µM)?
Its relative viability is 0.82.

And the relative viability ([9]; first compound 8 µM)?
Its relative viability is 0.663.

And the relative viability ([10]; first compound 0.08 µM)?
Its relative viability is 0.263.

What about the relative viability ([10]; first compound 0.253 µM) of the same cell line?
Its relative viability is 0.254.

What about the relative viability ([10]; first compound 2.53 µM) of the same cell line?
Its relative viability is 0.229.

And the relative viability ([10]; first compound 8 µM)?
Its relative viability is 0.202.

With EBC-1 as the cell line, how does the relative viability ([1]; 0.253 µM) read?
Its relative viability is 1.03.

What about the relative viability ([1]; 2.53 µM) of the same cell line?
The relative viability was 1.01.

And the relative viability ([1]; 8 µM)?
The relative viability was 0.693.

What about the relative viability ([11]; first compound 0.08 µM) of the same cell line?
Its relative viability is 0.577.

What about the relative viability ([11]; first compound 0.253 µM) of the same cell line?
Its relative viability is 0.492.

What about the relative viability ([11]; first compound 2.53 µM) of the same cell line?
Its relative viability is 0.426.

What about the relative viability ([11]; first compound 8 µM) of the same cell line?
Its relative viability is 0.243.

What about the relative viability ([12]; first compound 0.253 µM) of the same cell line?
The relative viability was 0.317.

And the relative viability ([12]; first compound 2.53 µM)?
The relative viability was 0.343.

And the relative viability ([12]; first compound 8 µM)?
The relative viability was 0.224.

What about the relative viability ([13]; first compound 0.08 µM) of the same cell line?
Its relative viability is 0.375.

And the relative viability ([13]; first compound 0.253 µM)?
Its relative viability is 0.337.

What about the relative viability ([13]; first compound 2.53 µM) of the same cell line?
Its relative viability is 0.274.

What about the relative viability ([13]; first compound 8 µM) of the same cell line?
Its relative viability is 0.178.

And the relative viability ([14]; first compound 0.253 µM)?
Its relative viability is 0.0885.

And the relative viability ([14]; first compound 2.53 µM)?
Its relative viability is 0.12.

What about the relative viability ([14]; first compound 8 µM) of the same cell line?
Its relative viability is 0.124.

And the relative viability ([4]; first compound 0.08 µM)?
The relative viability was 0.652.

And the relative viability ([4]; first compound 0.253 µM)?
Its relative viability is 0.69.

And the relative viability ([4]; first compound 2.53 µM)?
The relative viability was 0.652.

And the relative viability ([4]; first compound 8 µM)?
The relative viability was 0.52.

And the relative viability ([15]; first compound 2.53 µM)?
Its relative viability is 0.183.

And the relative viability ([15]; first compound 8 µM)?
The relative viability was 0.233.

What about the relative viability ([16]; first compound 2.53 µM) of the same cell line?
The relative viability was 0.216.

What about the relative viability ([16]; first compound 8 µM) of the same cell line?
The relative viability was 0.192.

What about the relative viability ([17]; first compound 0.08 µM) of the same cell line?
The relative viability was 0.905.

What about the relative viability ([17]; first compound 0.253 µM) of the same cell line?
The relative viability was 0.907.

And the relative viability ([17]; first compound 2.53 µM)?
The relative viability was 1.07.

And the relative viability ([17]; first compound 8 µM)?
The relative viability was 0.869.

What about the relative viability ([18]; first compound 0.08 µM) of the same cell line?
Its relative viability is 0.821.

And the relative viability ([18]; first compound 0.253 µM)?
The relative viability was 0.889.

What about the relative viability ([18]; first compound 2.53 µM) of the same cell line?
The relative viability was 0.599.

What about the relative viability ([18]; first compound 8 µM) of the same cell line?
The relative viability was 0.497.
